Measurements: patent US20130149311A1, “GFI1B MODULATION AND USES THEREOF” (INSTITUT DE RECHERCHES CLINIQUES DE MONTREAL, priority 2010, published 2013)

Tested on: HSCs
Assay: N-Acetyl-Cystein (NAC) feeding of plpC-treated Gfi1b^fl/fl and MxCre tg Gfi1b^fl/fl mice; hematological compartments and HSC numbers by flow cytometry
Format: in vivo
Conditions: for Number of HSCs in BM NAC treatment / % Lin^− cells in BM NAC treatment / Number of BM cells × 10^6 NAC treatment / Number of HSCs in Spleen NAC treatment / Number of HSCs per 1 ml blood NAC treatment / Number of Lin^− cells × 10^6 NAC treatment / Number of splenocytes × 10^6 NAC treatment: plpC-treated, fed daily with N-Acetyl-Cystein, mean ± SEM
Protocol: Treatment. MxCre tg Gfi1^fl/fl or Gfi1b^fl/fl mice were injected with polyinosinic-polycytidylic acid (plpC) (Sigma-Aldrich) at a dose of 500 μg per injection every other day for a total of 5 injections. As control, wt or Gfi1b^fl/fl mice not carrying the MxCre tg were injected with plpC. With regard to N-Acetyl-Cystein (Sigma-Aldrich, Mississagua) treatment, mice were fed every day with 500 μl N-Acety-Cystein (50 mg/ml)
Flow cytometry analysis, sorting of HSC and progenitors. HSCs and progenitors were analyzed with a LSR™, or Cyan flow cytometers and HSC were sorted with a MoFlo™ from adult mouse bone marrow as described previously (Kiel et al., 2005, supra; Adolfsson J et al., Cell 2005; 121:295-306). The BrdU experiments and the determination of cell cycle phases by Hoechst staining was done according to described procedures (Wilson et al., 2005, supra). Reactive oxygen species (ROS) were analyzed by staining HSCs with 5-(and-6)-carboxy-2′,7′-dichlorodihydrofluorescein diacetate (carboxy-H2DCFDA) (Invitrogen, Burlington, Canada) for 30 min at 37° C. After staining, cells were analyzed by flow cytometry for level of ROS in HSCs.
To verify whether loss of Gfi1b activates HSCs and that this activation leads to increased level of ROS which in turn could lead to an expansion of HSCs, mice were fed with N-Acetyl-Cystein (NAC), which counteracts the effects of ROS (Ito K, et al. Nat Med. April 2006; 12(4):446-451).

[1] = Gfi1b^fl/fl Mx-Cre tg (Gfi1b deficient) mice
[2] = Gfi1b^fl/fl Mx-Cre tg vs Gfi1b^fl/fl, both NAC treated

CC(=O)N[C@@H](CS)C(=O)O [NAC, N-Acetyl-Cystein]
Number of HSCs in BM NAC treatment (Gfi1b^fl/fl (wt) mice, HSCs = Lin^−, Sca-1^+, Kit^+, CD150^+, CD48^−): 1700 ± 700,
% Lin^− cells in BM NAC treatment (Gfi1b^fl/fl (wt) mice): 1.5 ± 0.1, %
Number of BM cells × 10^6 NAC treatment (Gfi1b^fl/fl (wt) mice): 45 ± 4, × 10^6
Number of HSCs in Spleen NAC treatment (Gfi1b^fl/fl (wt) mice): 197 ± 77,
Number of HSCs per 1 ml blood NAC treatment (Gfi1b^fl/fl (wt) mice): 11 ± 1, per 1 ml blood
Number of Lin^− cells × 10^6 NAC treatment (Gfi1b^fl/fl (wt) mice): 0.8 ± 0.1, × 10^6
Number of splenocytes × 10^6 NAC treatment (Gfi1b^fl/fl (wt) mice): 86 ± 22, × 10^6
% Lin^− cells in BM NAC treatment [1]: 2.45 ± 0.5, %
Number of BM cells × 10^6 NAC treatment [1]: 44 ± 2, × 10^6
Number of HSCs in BM NAC treatment [1]: 5700 ± 1100,
Number of HSCs in Spleen NAC treatment [1]: 6000 ± 2000,
Number of HSCs per 1 ml blood NAC treatment [1]: 307 ± 100, per 1 ml blood
Number of Lin^− cells × 10^6 NAC treatment [1]: 1.1 ± 0.4, × 10^6
Number of splenocytes × 10^6 NAC treatment [1]: 104 ± 22, × 10^6
% Lin^− cells in BM NAC treatment, fold change [2]: 1.6
Number of BM cells NAC treatment, fold change [2]: 1
Number of HSCs in BM NAC treatment, fold change [2]: 3
Number of HSCs in Spleen NAC treatment, fold change [2]: 30
Number of HSCs per 1 ml blood NAC treatment, fold change [2]: 28
Number of Lin^− cells NAC treatment, fold change [2]: 1.4
Number of splenocytes NAC treatment, fold change [2]: 1.2
Effect on expansion of Gfi1b^ko/ko HSCs (frequencies and absolute numbers) (bone marrow, spleen and peripheral blood, NAC-treated vs untreated Gfi1b-deficient mice): significantly limited the expansion
